According to PMC6273488, “Synthesis and Biological Evaluation of Benzochromenopyrimidinones as Cholinesterase Inhibitors and Potent Antioxidant, Non-Hepatotoxic Agents for Alzheimer’s Disease” (Molecules, 2016):
Where two headings read alike, the source gives them in different places.

Assays:
[1] = Oxygen radical absorbance capacity by fluorescence (ORAC-FL); conditions: mean ± SD
Experimental: Trolox was used as standard, fluorescein as fluorescent probe and 2,2′-azobis(2-amidinopropane) dihydrochloride (AAPH) as the peroxyl radical source. Ferulic acid was used as a positive control.
The antioxidant power of BCPOs was determined following the ORAC-FL method using fluorescein as the fluorescent probe. (±)-6-Hydroxy-2,5,7,8-tetramethylchromane-2-carboxylic acid (Trolox), fluorescein (FL) and AAPH were bought from Sigma-Aldrich (Saint Louis, MO, USA). A Varioskan Flash plate reader with built-in injectors (Thermo Scientific, Waltham, MA, USA) was used. The final volume reaction mixture was 200 µL and the reaction was carried out at 37 °C in 75 mM phosphate buffer (pH 7.4). The tested compounds and Trolox standard were dissolved in DMSO to 10 mM and further diluted in phosphate buffer. The final concentrations were 0.1–1 µM for the tested compounds and 1–8 µM for Trolox standard. The blank was composed of 120 µL of FL, 60 µL of AAPH and 20 µL of phosphate buffer (pH = 7.4) and was added in each assay. The antioxidant (20 µL) and fluorescein (FL, 120 µL, final concentration of 70 nM) were incubated in a black 96-well microplate Nunc, purchazed from Thermo Fisher Scientific, Ecublens, Switzerland) for 15 min at 37 °C. Then, AAPH, 60 µL, final concentration of 12 mM) solution was added quickly using the built-in injector. […] The microplate was automatically shaken prior to each reading. All the experiments were made in triplicate and at least three different assays were performed for each sample.
Using MS Excel software, regression equations were extrapolated by plotting the net AUC against the antioxidant concentration. The ORAC values were then obtained by dividing the slope of the latter curve between the slope of the Trolox curve obtained in the same assay. Final ORAC values were expressed as Trolox equivalents. Data are expressed as mean ± SD.

[2] = molecular target: T1, Electrophorus electricus AChE (EeAChE) (Electrophorus electricus, UniProt O42275); experiment: Inhibition of EeAChE (Ellman's assay); type: biochemical; conditions: mean ± SEM, at least three independent experiments
T1 construct: purified AChE from Electrophorus electricus (Type V-S, Sigma-Aldrich); purchased Sigma-Aldrich Type V-S
T1 sequence (O42275 24-633): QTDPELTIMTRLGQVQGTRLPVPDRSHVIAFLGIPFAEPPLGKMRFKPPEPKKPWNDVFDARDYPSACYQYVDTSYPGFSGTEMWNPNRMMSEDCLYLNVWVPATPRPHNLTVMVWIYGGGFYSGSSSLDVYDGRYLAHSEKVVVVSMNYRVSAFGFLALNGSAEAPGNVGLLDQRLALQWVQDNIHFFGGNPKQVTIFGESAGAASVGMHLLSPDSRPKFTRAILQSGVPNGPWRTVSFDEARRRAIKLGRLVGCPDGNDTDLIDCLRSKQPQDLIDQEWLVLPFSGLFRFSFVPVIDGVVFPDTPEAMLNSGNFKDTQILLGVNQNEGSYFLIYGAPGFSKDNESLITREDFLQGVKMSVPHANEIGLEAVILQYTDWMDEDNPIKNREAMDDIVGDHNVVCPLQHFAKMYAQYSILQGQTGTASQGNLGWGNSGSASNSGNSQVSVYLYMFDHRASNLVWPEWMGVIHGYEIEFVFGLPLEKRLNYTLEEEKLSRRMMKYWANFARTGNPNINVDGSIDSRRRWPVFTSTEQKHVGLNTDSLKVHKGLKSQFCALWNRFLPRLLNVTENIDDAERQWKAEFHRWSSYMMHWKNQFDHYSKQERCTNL
Experimental: (§1) For the preliminary screening of the inhibitory potencies, Electrophorus electricus AChE (EeAChE) and horse serum BuChE (eqBuChE) were used following the Ellman’s assay.
(§2) Assessment of the inhibitory power of BCPOs was performed following the spectrophotometric method of Ellman using purified AChE from Electrophorus electricus (Type V-S, Sigma-Aldrich) or BuChE from horse serum (lyophilized powder, Sigma-Aldrich). Enzymes were first dissolved in 0.1 M phosphate buffer (pH 8.0) and then aliquoted in small vials for easy handling. Compounds stock solutions in DMSO (10 mM) were diluted when necessary with DMSO to prepare appropriate dilutions of each compound. The assay was performed in a final volume of 3 mL of a 0.1 M phosphate-buffered solution at pH 8.0, containing 5,5′-dithiobis-2-nitrobenzoic acid (DTNB, 2625 µL, 0.35 mM, final concentration), EeAChE (29 µL, 0.035 U/mL final concentration) or eqBuChE (60 µL, 0.05 U/mL final concentration) tested compound (3 µL, different concentrations) and 1% (w/v) Bovine Albumin Serum phosphate-buffered (pH 8.0) solution (BSA, 40 µL). The inhibition in comparison to control without compound was determined by pre-incubating this blend at room temperature with each compound at nine different concentrations for 10 min. Then, acetylthiocholine iodide (105 µL, 0.35 mM, final concentration) or butyrylthiocholine iodide (150 µL, 0.5 mM final concentration) was added and incubated for another 15 min at rt. […] Calculation of IC50 values was performed with GraphPad Prism 5. Each concentration was measured in triplicate. Data are expressed as mean ± SEM.

[3] = molecular target: T2, horse serum BuChE (eqBuChE) (Equus caballus, UniProt P81908); experiment: Inhibition of eqBuChE (Ellman's assay); type: biochemical; conditions: 10 µM compound
T2 construct: BuChE from horse serum (lyophilized powder, Sigma-Aldrich); purchased Sigma-Aldrich; host or cells: horse serum
T2 sequence (P81908 whole entry): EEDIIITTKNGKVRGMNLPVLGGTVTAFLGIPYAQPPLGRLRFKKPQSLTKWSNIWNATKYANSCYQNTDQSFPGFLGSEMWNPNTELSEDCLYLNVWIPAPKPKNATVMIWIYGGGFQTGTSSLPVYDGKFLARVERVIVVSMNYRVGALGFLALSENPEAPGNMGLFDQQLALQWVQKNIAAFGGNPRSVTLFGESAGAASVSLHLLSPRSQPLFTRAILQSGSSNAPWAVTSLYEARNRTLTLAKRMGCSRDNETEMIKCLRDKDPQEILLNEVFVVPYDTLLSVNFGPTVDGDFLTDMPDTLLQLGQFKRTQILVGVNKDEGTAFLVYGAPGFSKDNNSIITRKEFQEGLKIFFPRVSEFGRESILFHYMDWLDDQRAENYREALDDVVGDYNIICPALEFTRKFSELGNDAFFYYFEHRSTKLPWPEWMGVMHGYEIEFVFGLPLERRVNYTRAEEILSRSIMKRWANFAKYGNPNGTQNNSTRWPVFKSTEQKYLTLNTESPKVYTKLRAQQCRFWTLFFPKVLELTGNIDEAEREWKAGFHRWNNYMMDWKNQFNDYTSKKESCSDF
Experimental: as §1, §2

in vitro = conditions: for Papp: PAMPA, pH 7.4
Experimental: Penetration across the BBB is an essential property for compounds targeting the CNS. […] The filter membrane of the donor plate was coated with PBL (Polar Brain Lipid, Avanti, AL, USA) in dodecane (4 µL of 20 mg/mL PBL in dodecane) and the acceptor well was filled with 300 µL of PBS pH 7.4 buffer ([…]). Tested compounds were dissolved first in DMSO and that diluted with PBS pH 7.4 to reach the final concentration 100 µM in the donor well. […] 300 µL of the donor solution was added to the donor wells ([…]) and the donor filter plate was carefully put on the acceptor plate so that coated membrane was “in touch” with both donor solution and acceptor buffer. Test compound diffused from the donor well through the lipid membrane (Area = 0.28 cm^2) to the acceptor well. The concentration of the drug in both donor and the acceptor wells was assessed after 3, 4, 5 and 6 h of incubation in quadruplicate using the UV plate reader Synergy HT (Biotek, Winooski, VT, USA) at the maximum absorption wavelength of each compound.

[4] = ORAC-FL, cited from earlier work

Row | Compound | ORAC [1] | IC50 [2] | inhibition at 10 µM [3] | Papp (in vitro) | BBB Penetration Estimation CNS (+/−) (in vitro; PAMPA-BBB class) | ORAC [4] | ORAC ([4]; listed as ferulic acid)
1 | COc1cccc(C2c3ccc4ccccc4c3Oc3nc4n(c(=O)c32)CCC4)c1 (centres unmarked) [4Ba, 7-(3′-Methoxyphenyl)-11,12-dihydro-7H-benzo[7,8]chromeno[2,3-d]pyrrolo[1,2-a]pyrimidin-8(10H)-one] | 3.8 ± 0.1 Trolox equivalents | 327 ± 38.9 nM | 38 ± 1.6% | – | – | – | –
2 | CCN(C)C(=O)Oc1cccc([C@H](C)N(C)C)c1 [Rivastigmine, reference compound] | – | – | – | 6.6 ± 0.5 ×10⁻⁶ cm/s | – | – | –
3 | CN1C(C(=O)Nc2ccccn2)=C(O)c2ccccc2S1(=O)=O [Piroxicam, reference compound] | – | – | – | 2.2 ± 0.15 ×10⁻⁶ cm/s | CNS (+/−) (‘CNS (+/−) (BBB permeability uncertain); Pe (10^−6 cm·s^−1) from 4.0 to 2.0) | – | –
4 | O=c1c2c(nc3n1CCC3)Oc1c(ccc3ccccc13)C2c1ccccc1 (centres unmarked) [4Aa, 7-Phenyl-11,12-dihydro-7H-benzo[7,8]chromeno[2,3-d]pyrrolo[1,2-a]pyrimidin-8(10H)-one] | 2.1 ± 0.1 Trolox equivalents | 318 ± 26 nM | 23.1 ± 3.1% | – | – | – | –
5 | COc1cccc(C2c3ccc4ccccc4c3Oc3nc4n(c(=O)c32)CCCCC4)c1 (centres unmarked) [4Bc, 7-(3′-Methoxyphenyl)-11,12,13,14-tetrahydro-7H-benzo[7,8]chromeno[2′,3′,4,5]pyrimido[1,2-a]azepin-8(10H)-one] | 3.4 ± 0.2 Trolox equivalents | 195 ± 6.2 nM | 31.1 ± 2.1% | – | – | – | –
6 | O=c1c2c(nc3n1CCCC3)Oc1c(ccc3ccccc13)C2c1ccccc1 (centres unmarked) [4Ab, 7-Phenyl-10,11,12,13-tetrahydro-7H-benzo[7,8]chromeno[2,3-d]pyrido[1,2-a]pyrimidin-8-one] | 2.3 ± 0.2 Trolox equivalents | 384 ± 19.4 nM | 54.6 ± 1.8% | – | – | – | –
7 | Cc1ccc(C2c3ccc4ccccc4c3Oc3nc4n(c(=O)c32)CCC4)cc1 (centres unmarked) [4Ca, 7-(4′-Methylphenyl)-11,12-dihydro-7H-benzo[7,8]chromeno[2,3-d]pyrrolo[1,2-a]pyrimidin-8(10H)-one] | 3.2 ± 0.1 Trolox equivalents | 116 ± 6.2 nM | 26.8 ± 2.9% | – | – | – | –
8 | Cc1ccc(C2c3ccc4ccccc4c3Oc3nc4n(c(=O)c32)CCCCC4)cc1 (centres unmarked) [4Cc, 17-(4′-Methylphenyl)-11,12,13,14-tetrahydro-7H-benzo[7,8]chromeno[2′,3′,4,5]pyrimido[1,2-a]azepin-8(10H)-one] | 3.6 ± 0.2 Trolox equivalents | 174 ± 5.9 nM | < 10% | – | – | – | –
9 | Cc1ccc(C2c3ccc4ccccc4c3Oc3nc4n(c(=O)c32)CCCC4)cc1 (centres unmarked) [4Cb, 7-(4′-Methylphenyl)-10,11,12,13-tetrahydro-7H-benzo[7,8]chromeno[2,3-d]pyrido[1,2-a]pyrimidin-8-one] | 2.9 ± 0.1 Trolox equivalents | 193 ± 18.7 nM | 24.4 ± 1.2% | – | – | – | –
10 | COc1cccc(C2c3c(nc4n(c3=O)CCCCC4)Oc3ccc4ccccc4c32)c1 (centres unmarked) [3Bc, 16-(3′-Methoxyphenyl)-10,11,12,13-tetrahydro-16H-benzo[5,6]chromeno[2′,3′,4,5]pyrimido[1,2-a]azepin-15(9H)-one] | 3.5 ± 0.3 Trolox equivalents | 108 ± 7.2 nM | < 10% | – | – | – | –
11 | Cc1ccc(C2c3c(nc4n(c3=O)CCCCC4)Oc3ccc4ccccc4c32)cc1 (centres unmarked) [3Cc, 16-(4’-Methylphenyl)-10,11,12,13-tetrahydro-16H-benzo[5,6]chromeno[2′,3′,4,5]pyrimido[1,2-a]azepin-15(9H)-one] | 3.1 ± 0.2 Trolox equivalents | 167 ± 7.8 nM | < 10% | – | – | – | –
12 | O=c1c2c(nc3n1CCCCC3)Oc1c(ccc3ccccc13)C2c1ccccc1 (centres unmarked) [4Ac, 7-Phenyl-11,12,13,14-tetrahydro-7H-benzo[7,8]chromeno[2′,3′,4,5]pyrimido[1,2-a]azepin-8(10H)-one] | 2.5 ± 0.1 Trolox equivalents | 290 ± 8.3 nM | 24.2 ± 3.1% | – | – | – | –
13 | Cc1ccc(C2c3c(nc4n(c3=O)CCC4)Oc3ccc4ccccc4c32)cc1 (centres unmarked) [3Ca, 14-(4′-Methylphenyl)-10,11-dihydro-14H-benzo[5,6]chromeno[2,3-d]pyrrolo[1,2-a]pyrimidin-13(9H)-one] | 2.7 ± 0.3 Trolox equivalents | 112 ± 21.7 nM | 17.4 ± 1.8% | – | – | – | –
14 | O=c1c2c(nc3n1CCC3)Oc1ccc3ccccc3c1C2c1ccccc1 (centres unmarked) [3Aa, 14-Phenyl-10,11-dihydro-14H-benzo[5,6]chromeno[2,3-d]pyrrolo[1,2-a]pyrimidin-13(9H)-one] | 2.6 ± 0.1 Trolox equivalents | 518 ± 87.9 nM | 12.1 ± 1.4% | – | – | – | –
15 | COc1cccc(C2c3ccc4ccccc4c3Oc3nc4n(c(=O)c32)CCCC4)c1 (centres unmarked) [4Bb, 7-(3′-Methoxyphenyl)-10,11,12,13-tetrahydro-7H-benzo[7,8]chromeno[2,3-d]pyrido[1,2-a]pyrimidin-8-one] | 3.7 ± 0.2 Trolox equivalents | 153 ± 3.1 nM | < 10% | – | – | – | –
16 | COc1cc(/C=C/C(=O)O)ccc1O [Ferulic acid] | – | – | – | – | – | 3.7 ± 0.1 [22] Trolox equivalents | 3.7 Trolox equivalents
17 | O=c1c2c(nc3n1CCCCC3)Oc1ccc3ccccc3c1C2c1ccccc1 (centres unmarked) [3Ac, 16-Phenyl-10,11,12,13,-tetrahydro-16H-benzo[5,6]chromeno[2′,3′,4,5]pyrimido[1,2-a]azepin-15(9H)-one] | 2.5 ± 0.2 Trolox equivalents | 301 ± 6.5 nM | 28.4 ± 7.3% | – | – | – | –
